According to patent publication US20200261391A1, “METHODS OF REDUCING THE RISK OF A CARDIOVASCULAR EVENT IN A STATIN-TREATED SUBJECT BY INCREASING SERUM AND PLASMA EPA AND DPA LEVELS” (Amarin Pharmaceuticals Ireland Limited, priority 2019, published 2020):

Legend:
Type in all cases: in vivo, human
[1] = system: patients with elevated triglyceride levels on statin therapy; assay: REDUCE-IT endpoints by pooled (icosapent ethyl and placebo) EPA blood level tertile; conditions: FIG. 54; ITT pooled; tertiles ≤31.733, >31.733 to ≤120.175, >120.175 μg/mL
[2] = system: patients with elevated triglyceride levels on statin therapy; assay: REDUCE-IT endpoints by EPA blood level tertile in the icosapent ethyl group compared to placebo; conditions: averaged upper EPA tertile vs below the upper tertile
Protocol: To assess the relationship between on-treatment hsCRP and the primary and key secondary endpoints, subgroup analyses were carried out as done for the ITT population for patients grouped according to values greater or equal to or less than […] at baseline and at 2 years. To assess the relationship between on-treatment serum EPA and the primary and key secondary endpoints, Kaplan-Meier (KM) curves were produced for AMR101 treated patients grouped into tertiles based on their values at year 1 and were compared with the placebo-treated patients.
This is a study aimed towards determining a relative risk reduction (RRR) between subjects stratified by EPA tertiles in the REDUCE-IT clinical trial described above in Example 1. Samples were obtained from those subjects and total EPA and AA levels in human serum and plasma samples were determined according at least to the methods described in Example 7.
(§1) The objective of this study is to assess the effects of administering icosapent ethyl at 4 g per day to patients from the REDUCE-IT trial of Example 1. More specifically, patients from the REDUCE-IT trial of Example 1 were stratified by their EPA levels into one of three tertiles. Following stratification, the objective was to determine if the RRR differs between patients having EPA levels in the three different tertiles. For the data collected as shown in Tables 38-43 and FIGS. 52, 53, and 56-59, the tertiles were established based on data collected from subjects at 1 year, 2 years, and last visit following icosapent ethyl administration compared to placebo. Data are presented as an average of 1 year, 2 year, […], and end of study values. The data was further analyzed use both pooled and unpooled statistically methods.

[3] = system: patients with elevated triglyceride levels on statin therapy; assay: REDUCE-IT endpoints by pooled (icosapent ethyl and placebo) EPA/AA ratio tertile
Excerpt: as §1
Placebo and icosapent ethyl treated subjects were pooled and stratified based on EPA/AA tertiles with […], […], and the highest […]

[4] = system: patients with elevated triglyceride levels on statin therapy; assay: REDUCE-IT endpoints by pooled (icosapent ethyl and placebo) EPA blood level tertile
Excerpt: as §1
(0.84 for lowest vs. placebo, 0.72 for middle vs. placebo, and 0.65 for highest vs. placebo).

[5] = FIG. 56, ITT pooled, tertiles ≤0.0857, >0.0857 to ≤0.4053, >0.4053
[6] = pooled, tertiles ≤0.084337, >0.084337 to ≤0.395187, >0.395187
[7] = pooled, tertiles ≤31.305, >31.305 to ≤118.1, >118.1 μg/mL

CC/C=C\C/C=C\C/C=C\C/C=C\C/C=C\CCCC(=O)O [EPA, eicosapentaenoic acid]
primary composite endpoint HR, high vs lowest EPA tertile [1]: 0.64 | primary endpoint HR, average achieved EPA >181 mg/L vs ≤181 mg/L [2]: 0.842 | primary endpoint HR, highest vs. lowest EPA/AA tertile [3, 5]: 0.63 | primary endpoint HR, middle vs. lowest EPA/AA tertile [3, 5]: 0.79 | key secondary endpoint HR, highest vs. lowest EPA/AA tertile [3, 6]: 0.57 | key secondary endpoint HR, highest vs. middle EPA/AA tertile [3, 6]: 0.75 | key secondary endpoint HR, middle vs. lowest EPA/AA tertile [3, 6]: 0.76 | primary endpoint HR, highest vs. lowest EPA/AA tertile [3, 6]: 0.64 | primary endpoint HR, highest vs. middle EPA/AA tertile [3, 6]: 0.84 | primary endpoint HR, middle vs. lowest EPA/AA tertile [3, 6]: 0.77 | primary composite endpoint RRR, highest vs lowest EPA tertile ([4]; FIG. 52, pooled): 43% | primary composite endpoint RRR, highest vs middle EPA tertile ([4]; FIG. 52, pooled): 30% | primary composite endpoint RRR, middle vs lowest EPA tertile ([4]; FIG. 52, pooled): 29% | primary composite endpoint HR, middle vs lowest EPA tertile ([4]; FIG. 54, ITT pooled, tertiles ≤31.733, >31.733 to ≤120.175, >120.175 μg/mL): 0.79 | primary endpoint HR, highest vs. lowest tertile ([4]; pooled placebo and icosapent ethyl, tertiles ≤31.305, >31.305 to ≤118.1, >118.1 μg/mL): 0.65 | key secondary endpoint HR, highest vs. lowest tertile [4, 7]: 0.61 | key secondary endpoint HR, highest vs. middle tertile [4, 7]: 0.78 | key secondary endpoint HR, middle vs. lowest tertile [4, 7]: 0.78 | primary endpoint HR, highest vs. middle tertile [4, 7]: 0.80 | primary endpoint HR, middle vs. lowest tertile [4, 7]: 0.81
